# Measured values reported in article PMC8132114 (ACS combinatorial science, 2019).
# *1 amine or outer side, *2 acyl side, *3 side chain or, on linkers, in order; H or OH if unused. Where a SMILES comes first, the peptide text is derived from it. [ ]: non-standard residue; d: D form. The star is where a group is joined. X1 = O=C([C@H](CCON=Cc1c(Cl)cncc1Cl)N[*:1])[*:2]; Biotin = O=C1N[C@H]2[C@H](CS[C@H]2CCCCC(=O)*)N1; pY = N[C@@H](Cc1ccc(OP(=O)(O)O)cc1)C(=O)O; Ahx = NCCCCCC(=O)O
# B1: human DUSP14 C111S substrate-trapping mutant, O95147 1-198 (enzyme)
# chain: MSSRGHSTLPRTLMAPRMISEGDIGGIAQITSSLFLGRGSVASNRHLLQARGITCIVNATIEIPNFNWPQFEYVKVPLADMPHAPIGLYFDTVADKIHSVSRKHGATLVHSAAGVSRSATLCIAYLMKFHNVCLLEAYNWVKARRPVIRPNVGFWRQLIDYERQLFGKSTVKMVQTPYGIVPDVYEKESRHLMPYWGI
# Assays:
# [1] = tested on: VH1; type: biochemical
# [2] = tested on: VH1; type: biochemical; remark: listed apart in the source
# [3] = target: oxime-containing phosphopeptide 6f-w202; assay: SPR
# [4] = target: oxime-containing phosphopeptide 6f-w99; assay: SPR
molecule,measurement,setting,value
CC(C)[C@H](NC(=O)CCCCCNC(=O)CCCC[C@@H]1SC[C@@H]2NC(=O)N[C@@H]21)C(=O)N[C@@H](CC(=O)O)C(=O)N[C@@H](C)C(=O)N[C@@H](CC(=O)O)C(=O)N[C@@H](CCC(=O)O)C(=O)N[C@@H](Cc1ccc(OP(=O)(O)O)cc1)C(=O)N[C@@H](CCON=Cc1c(Cl)cncc1Cl)C(N)=O [Peptide 6f-w202] ({Biotin-Ahx}-VDADE[pY][X1]-NH2),percent dephosphorylation,[1],43%
Ac-OtGGOt-NH2 [Peptide 15],"inhibition, VH1 compared with DUSP14",[2],greater for VH1 than for DUSP14
B1,Kd,[3],640 nM
same,Kd,[4],94 nM
